In patent US12539292B2, “BRM targeting compounds and associated methods of use” (Arvinas Operations, Inc., priority 2018, dated 2026):
Where two headings read alike, the source gives them in different places.

Target: T1, BRM (Homo sapiens, UniProt P51531)
T1 construct: In-Cell Western Screen of BRM Degradation in SW1573 Cells; endogenous in cells; host or cells: SW1573
Test: In-cell Western screen of BRM degradation in SW1573 cells (Dmax and DC50)
Type: cell-based
Outline: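 Overnight compound treatment (18-20 h, final DMSO 0.1%) of SW1573 cells in DMEM with 10% FBS precedes fixation and in-cell Western staining with 800/680 nm dye-labelled secondaries. Plate images give DC50 and maximal degradation.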

[1] = BRM degradation, SW1573 cells, read-out: DC50
[2] = BRM degradation, SW1573 cells, tested at the top concentration of between 0.3 and 10 μM, read-out: Dmax (%) (% degraded)
[3] = target protein degradation, read-out: BRM DC50
[4] = BRM degradation, read-out: BRM DC50
[5] = degradation of BRM, read-out: BRM DC50

T1 sequence (P51531 whole entry): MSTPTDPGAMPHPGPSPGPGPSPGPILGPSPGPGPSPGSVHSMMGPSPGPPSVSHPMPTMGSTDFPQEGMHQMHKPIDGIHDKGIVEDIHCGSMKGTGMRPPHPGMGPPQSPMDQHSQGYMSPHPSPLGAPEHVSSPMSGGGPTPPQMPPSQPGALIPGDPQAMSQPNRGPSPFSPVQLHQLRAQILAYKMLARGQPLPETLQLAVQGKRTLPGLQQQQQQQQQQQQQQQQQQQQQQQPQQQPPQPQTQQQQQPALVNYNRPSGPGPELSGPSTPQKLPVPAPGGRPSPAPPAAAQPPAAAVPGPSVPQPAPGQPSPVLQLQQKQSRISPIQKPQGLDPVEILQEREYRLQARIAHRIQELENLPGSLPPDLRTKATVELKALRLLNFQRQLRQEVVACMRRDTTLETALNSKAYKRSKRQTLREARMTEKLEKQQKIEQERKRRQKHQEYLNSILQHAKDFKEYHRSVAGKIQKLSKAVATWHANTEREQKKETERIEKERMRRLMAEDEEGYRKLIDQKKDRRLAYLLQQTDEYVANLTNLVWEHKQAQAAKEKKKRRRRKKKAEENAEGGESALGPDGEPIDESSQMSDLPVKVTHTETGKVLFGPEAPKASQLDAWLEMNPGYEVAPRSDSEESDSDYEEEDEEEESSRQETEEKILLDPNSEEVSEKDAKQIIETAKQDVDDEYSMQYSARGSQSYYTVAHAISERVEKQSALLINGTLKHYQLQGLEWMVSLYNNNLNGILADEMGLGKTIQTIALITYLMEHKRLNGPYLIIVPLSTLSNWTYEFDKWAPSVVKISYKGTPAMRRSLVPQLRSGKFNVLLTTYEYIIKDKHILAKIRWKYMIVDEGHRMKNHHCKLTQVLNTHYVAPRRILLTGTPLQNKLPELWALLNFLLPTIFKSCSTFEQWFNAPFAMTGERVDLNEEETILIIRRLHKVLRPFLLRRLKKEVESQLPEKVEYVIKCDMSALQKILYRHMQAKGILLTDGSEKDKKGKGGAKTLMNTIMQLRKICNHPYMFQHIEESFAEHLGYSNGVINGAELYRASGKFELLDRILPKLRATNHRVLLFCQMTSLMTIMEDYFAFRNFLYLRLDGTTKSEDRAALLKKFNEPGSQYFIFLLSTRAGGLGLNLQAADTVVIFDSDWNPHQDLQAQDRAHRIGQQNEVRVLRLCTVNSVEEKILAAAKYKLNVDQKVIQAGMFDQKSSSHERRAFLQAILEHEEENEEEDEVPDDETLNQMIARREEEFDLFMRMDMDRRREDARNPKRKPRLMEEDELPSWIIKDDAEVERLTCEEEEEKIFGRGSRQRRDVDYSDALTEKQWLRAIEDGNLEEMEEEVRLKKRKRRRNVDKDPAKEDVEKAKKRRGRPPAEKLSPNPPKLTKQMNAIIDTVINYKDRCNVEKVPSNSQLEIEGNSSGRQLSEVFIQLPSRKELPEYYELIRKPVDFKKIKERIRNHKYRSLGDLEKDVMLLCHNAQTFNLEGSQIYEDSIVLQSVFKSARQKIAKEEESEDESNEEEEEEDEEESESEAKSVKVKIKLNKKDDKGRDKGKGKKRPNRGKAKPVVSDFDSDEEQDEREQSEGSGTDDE

Cc1ncsc1-c1ccc([C@H](C)NC(=O)[C@@H]2C[C@@H](O)CN2C(=O)[C@@H](c2cc(OCCC3CCN(C(=O)[C@H]4C[C@H](Oc5cc(N6C7CCC6CN(c6cc(-c8ccccc8O)nnc6N)C7)ccn5)C4)CC3)no2)C(C)C)cn1 [compound 261, (2S,4R)-1-((2R)-2-(3-(2-(1-((1r,3R)-3-((4-(3-(3-amino-6-(2-hydroxyphenyl)pyridazin-4-yl)-3,8-diazabicyclo[3.2.1]octan-8-yl)pyridin-2-yl)oxy)cyclobutane-1-carbonyl)piperidin-4-yl)ethoxy)isoxazol-5-yl)-3-methylbutanoyl)-4-hydroxy-N-((S)-1-(6-(4-methylthiazol-5-yl)pyridin-3-yl)ethyl)pyrrolidine-2-carboxamide]
DC50 [1]: < 2.5 nM
Dmax [2]: > 75%

Cc1ncsc1-c1ccc([C@H](C)NC(=O)[C@@H]2C[C@@H](O)CN2C(=O)[C@@H](c2cc(N3CCC(CN4CCC(O[C@H]5C[C@H](Oc6cc(N7CCOC8(CCN(c9cc(-c%10ccccc%10O)nnc9N)CC8)C7)ccn6)C5)CC4)CC3)no2)C(C)C)cc1 [compound 716, (2S,4R)-1-((R)-2-(3-(4-((4-((1r,3r)-3-((4-(9-(3-amino-6-(2-hydroxyphenyl)pyridazin-4-yl)-1-oxa-4,9-diazaspiro[5.5]undecan-4-yl)pyridin-2-yl)oxy)cyclobutoxy)piperidin-1-yl)methyl)piperidin-1-yl)isoxazol-5-yl)-3-methylbutanoyl)-4-hydroxy-N-((S)-1-(4-(4-methylthiazol-5-yl)phenyl)ethyl)pyrrolidine-2-carboxamide]
DC50 [1]: < 2.5 nM
Dmax (BRM degradation, SW1573 cells, read-out: Dmax (% degraded)): > 75%

Cc1ncsc1-c1ccc([C@H](C)NC(=O)[C@@H]2C[C@@H](O)CN2C(=O)[C@@H](c2cc(OCCC3CCN(C(=O)[C@H]4C[C@@H](CN5CCC(n6cc(-c7cc(-c8ccccc8O)nnc7N)cn6)CC5)C4)CC3)no2)C(C)C)cc1 [compound 466, (2S,4R)-1-((R)-2-(3-(2-(1-((1s,3S)-3-((4-(4-(3-amino-6-(2-hydroxyphenyl)pyridazin-4-yl)-1H-pyrazol-1-yl)piperidin-1-yl)methyl)cyclobutane-1-carbonyl)piperidin-4-yl)ethoxy)isoxazol-5-yl)-3-methylbutanoyl)-4-hydroxy-N-((S)-1-(4-(4-methylthiazol-5-yl)phenyl)ethyl)pyrrolidine-2-carboxamide]
DC50 [3]: > 30 nM

Cc1ncsc1-c1ccc(CNC(=O)[C@@H]2C[C@@H](O)CN2C(=O)[C@@H](NC(=O)COCCOCCOCCOc2cc(N3C4CCC3CN(c3cc(-c5ccccc5O)nnc3N)C4)ccn2)C(C)(C)C)cc1 [compound 6, (2S,4R)-1-((2S)-14-((4-(3-(3-amino-6-(2-hydroxyphenyl)pyridazin-4-yl)-3,8-diazabicyclo[2.1]octan-8-yl)pyridin-2-yl)oxy)-2-(tert-butyl)-4-oxo-6,9,12-trioxa-3-azatetradecanoyl)-4-hydroxy-N-(4-(4-methylthiazol-5-yl)benzyl)pyrrolidine-2-carboxamide]
DC50 [1]: 10 to 30 nM
Dmax (BRM degradation, SW1573 cells, when tested at the top concentration of between 0.3 and 10 μM, read-out: Dmax (%) (% degraded)): > 75%

Cc1cc([C@@H](C(=O)N2C[C@H](O)C[C@H]2C(=O)N[C@@H](C)c2ccc(-c3scnc3C)cc2)[C@H](C)COCCOc2cc(N3C4CCC3CN(c3cc(-c5ccccc5O)nnc3N)C4)ccn2)on1 [compound 513, (2S,4R)-1-((2S,3S)-4-(2-((4-(3-(3-amino-6-(2-hydroxyphenyl)pyridazin-4-yl)-3,8-diazabicyclo[3.2.1]octan-8-yl)pyridin-2-yl)oxy)ethoxy)-3-methyl-2-(3-methylisoxazol-5-yl)butanoyl)-4-hydroxy-N-((S)-1-(4-(4-methylthiazol-5-yl)phenyl)ethyl)pyrrolidine-2-carboxamide]
DC50 [4]: > 30 nM

Cc1ncsc1-c1ccc([C@H](CCC#N)NC(=O)[C@@H]2C[C@@H](O)CN2C(=O)[C@H](c2cc(OCCN3CCC(O[C@H]4C[C@H](Oc5cc(N6C7CCC6CN(c6cc(-c8ccccc8O)nnc6N)C7)ccn5)C4)CC3)no2)C(C)C)cc1 [compound 532, (2S,4R)-1-((2S)-2-(3-(2-(4-((1r,3S)-3-((4-(3-(3-amino-6-(2-hydroxyphenyl)pyridazin-4-yl)-3,8-diazabicyclo[3.2.1]octan-8-yl)pyridin-2-yl)oxy)cyclobutoxy)piperidin-1-yl)ethoxy)isoxazol-5-yl)-3-methylbutanoyl)-N-((S)-3-cyano-1-(4-(4-methylthiazol-5-yl)phenyl)propyl)-4-hydroxypyrrolidine-2-carboxamide]
DC50 [4]: > 30 nM

Cc1ncsc1-c1ccc([C@@H](C)NC(=O)[C@@H]2C[C@@H](O)CN2C(=O)[C@@H](c2cc(OCCN3CCC(O[C@H]4C[C@H](Oc5cc(N6C7CCC6CN(c6cc(-c8ccccc8O)nnc6N)C7)ccn5)C4)CC3)no2)C(C)C)nn1 [compound 443, (2S,4R)-1-((2R)-2-(3-(2-(4-((1r,3R)-3-((4-(3-(3-amino-6-(2-hydroxyphenyl)pyridazin-4-yl)-3,8-diazabicyclo[3.2.1]octan-8-yl)pyridin-2-yl)oxy)cyclobutoxy)piperidin-1-yl)ethoxy)isoxazol-5-yl)-3-methylbutanoyl)-4-hydroxy-N-((R)-1-(6-(4-methylthiazol-5-yl)pyridazin-3-yl)ethyl)pyrrolidine-2-carboxamide]
DC50 [5]: > 30 nM

Cc1ncsc1-c1ccc([C@@H](CN)NC(=O)[C@@H]2C[C@@H](O)CN2C(=O)[C@@H](c2cc(OCCN3CCN(CCOc4cc(N5C6CCC5CN(c5cc(-c7ccccc7O)nnc5N)C6)ccn4)CC3)no2)C(C)C)cc1 [compound 256, (2S,4R)-N-((S)-2-amino-1-(4-(4-methylthiazol-5-yl)phenyl)ethyl)-1-((2R)-2-(3-(2-(4-(2-((4-(3-(3-amino-6-(2-hydroxyphenyl)pyridazin-4-yl)-3,8-diazabicyclo[3.2.1]octan-8-yl)pyridin-2-yl)oxy)ethyl)piperazin-1-yl)ethoxy)isoxazol-5-yl)-3-methylbutanoyl)-4-hydroxypyrrolidine-2-carboxamide]
DC50 [1]: > 30 nM

Cc1ncsc1-c1ccc([C@H](C)NC(=O)[C@@H]2C[C@@H](O)CN2C(=O)[C@@H](c2cc(OCCN3CCC(O[C@H]4C[C@H](Oc5cc(N6C7CCC6CN(c6cc(-c8ccccc8O)nnc6N)C7)ccn5)C4)CC3)no2)C(C)C)c(F)c1 [compound 240, (2S,4R)-1-((2R)-2-(3-(2-(4-((1r,3R)-3-((4-(3-(3-amino-6-(2-hydroxyphenyl)pyridazin-4-yl)-3,8-diazabicyclo[3.2.1]octan-8-yl)pyridin-2-yl)oxy)cyclobutoxy)piperidin-1-yl)ethoxy)isoxazol-5-yl)-3-methylbutanoyl)-N-((S)-1-(2-fluoro-4-(4-methylthiazol-5-yl)phenyl)ethyl)-4-hydroxypyrrolidine-2-carboxamide]
DC50 [1]: < 2.5 nM
Dmax [2]: > 75%

Cc1ncsc1-c1ccc([C@H](C)NC(=O)[C@@H]2C[C@@H](O)CN2C(=O)[C@@H](c2cc(N3CCN(CCN4CCC(O[C@H]5C[C@H](Oc6cc(N7C8CCC7CN(c7cc(-c9ccccc9O)nnc7N)C8)ccn6)C5)CC4)CC3)no2)C(C)C)cn1 [compound 402, (2S,4R)-1-((2R)-2-(3-(4-(2-(4-((1r,3r)-3-((4-(3-(3-amino-6-(2-hydroxyphenyl)pyridazin-4-yl)-3,8-diazabicyclo[3.2.1]octan-8-yl)pyridin-2-yl)oxy)cyclobutoxy)piperidin-1-yl)ethyl)piperazin-1-yl)isoxazol-5-yl)-3-methylbutanoyl)-4-hydroxy-N-((S)-1-(6-(4-methylthiazol-5-yl)pyridin-3-yl)ethyl)pyrrolidine-2-carboxamide]
Dmax (SW1573, % degraded, when tested at the top concentration of between 0.3 and 10 μM, read-out: BRM Dmax (%)): > 75%
DC50 [5]: < 2.5 nM

Cc1ncsc1-c1ccc([C@H](C)NC(=O)C2C[C@@H](O)CN2C(=O)[C@H](c2onc(OCCN3CCC(O[C@H]4C[C@H](Oc5cc(N6C7CCC6CN(c6cc(-c8ccccc8O)nnc6N)C7)ccn5)C4)CC3)c2Cl)C(C)C)cc1 (stereo partly drawn) [compound 361, (2S,4R)-1-((2S)-2-(3-(2-(4-((1r,3S)-3-((4-(3-(3-amino-6-(2-hydroxyphenyl)pyridazin-4-yl)-3,8-diazabicyclo[3.2.1]octan-8-yl)pyridin-2-yl)oxy)cyclobutoxy)piperidin-1-yl)ethoxy)-4-chloroisoxazol-5-yl)-3-methylbutanoyl)-4-hydroxy-N-((S)-1-(4-(4-methylthiazol-5-yl)phenyl)ethyl)pyrrolidine-2-carboxamide]
DC50 [3]: > 30 nM

Cc1ncsc1-c1ccc([C@H](C)NC(=O)[C@@H]2C[C@@H](O)CN2C(=O)[C@@H](c2cc(OCC#Cc3ncc(O[C@H]4C[C@H](Oc5cc(N6C7CCC6CN(c6cc(-c8ccccc8O)nnc6N)C7)ccn5)C4)cn3)no2)C(C)C)cc1 [compound 232, (2S,4R)-1-((2R)-2-(3-((3-(5-((1r,3R)-3-((4-(3-(3-amino-6-(2-hydroxyphenyl)pyridazin-4-yl)-3,8-diazabicyclo[3.2.1]octan-8-yl)pyridin-2-yl)oxy)cyclobutoxy)pyrimidin-2-yl)prop-2-yn-1-yl)oxy)isoxazol-5-yl)-3-methylbutanoyl)-4-hydroxy-N-((S)-1-(4-(4-methylthiazol-5-yl)phenyl)ethyl)pyrrolidine-2-carboxamide]
DC50 [1]: < 2.5 nM
Dmax [2]: > 75%
